# Test results from publication PMC5447088, “The Hybrid Strategy of Thermoactinospora rubra YIM 77501^T for Utilizing Cellulose as a Carbon Source at Different Temperatures” (Frontiers in Microbiology, 2017).
# Experiments:
# Assay in all cases: p-nitrophenol release, absorbance at […] nm
# Format in all cases: biochemical, Thermoactinospora rubra
# TrBG2 = conditions: optimal temperature 60 °C; optimal pH; pNPGlu assumed as the substrate of Table S5
# TrBG5 = conditions: optimal temperature 50-60 °C; optimal pH; pNPGlu assumed as the substrate of Table S5
# TrBG1 = conditions: optimal temperature 40 °C; optimal pH; pNPGlu assumed as the substrate of Table S5
# TrBG3 = conditions: optimal temperature 50 °C; optimal pH; pNPGlu assumed as the substrate of Table S5
smiles,measurement,setting,value
O=[N+]([O-])c1ccc(O[C@@H]2O[C@H](CO)[C@@H](O)[C@H](O)[C@H]2O)cc1 [p-nitrophenyl-β-D-glucopyranoside],Km,TrBG2,0.31 mM
same,Km,TrBG5,1.4 mM
same,Km,TrBG1,9.8 mM
same,Km,TrBG3,5.9 mM
